Experimental data published in patent US11110158B2, “Prostate-associated antigens and vaccine-based immunotherapy regimens” (Pfizer Inc., priority 2012, dated 2021).

Experiments:
human PSMA = assay: IFNγ ELISPOT of PBMCs, PSMA DNA electroporation with or without CpG in Chinese cynomolgus macaques, human PSMA peptide pools; format: in vivo, cynomolgus macaque; details: for animals that failed to produce high responses: intramuscular right after electroporation on day 0; for animals with modestly higher total response to the PSMA peptides: 3 days after DNA electroporation, cynomolgus
Experimental: (§1) Six groups of Chinese cynomolgus macaques, six (#1 to 6) per each test group, were immunized with a plasmid DNA encoding the human PSMA modified antigen (amino acids 15-750 of SEQ ID NO:1) delivered by electroporation. Briefly, all animals received bilateral intramuscular injections of 5 mg of plasmid DNA followed by electroporation (DNA EP) on day 0. Subsequently right after the electroporation, group 2 received bilateral intramuscular injections of 2 mg of CpG mixed with 1 mg Alum in proximity to the DNA injection sites. Group 3 and 4 received bilateral intramuscular injections of 2 mg of CpG delivered without alum in proximity to the DNA injection sites either on day 0 or day 3, respectively. Group 5 received 2 mg of bilateral intradermal injections of CpG delivered in proximity to the vaccine draining inguinal nodes on day 3. Group 6 received bilateral injections of 200 μg of CpG mixed with the DNA solution which was co-electroporated into the muscle on day 0.
Peripheral blood samples were collected from each animal fifteen days after the DNA immunization. Peripheral blood mononuclear cells (PBMCs) were isolated from the blood samples and were subjected to an IFNγELISPOT assay to measure the PSMA specific T cell responses. Briefly, 4e5 PBMCs from individual animals were plated per well with pools of PSMA specific peptides or nonspecific control peptides (human HER2 peptide pool) each at 2 ug/ml in IFNγELISPOT plates. The plates were incubated for 16 hrs at 37° C. and 5% CO2 and washed and developed after incubation as per manufacturer's instruction. The number of IFNγ spot forming cells (SFC) were counted by CTL reader. Each condition was performed in duplicates. […] ND indicates not determined.

[1] = cited from earlier work
rHER2 [2] = assay: Intracellular cytokine staining, rHER2 DNA vaccine with CpG 7909 or anti-CD40 in BALB/c mice; format: in vivo, rat; details: FIGS. 41A, 41B; CpG 7909 intradermal after both PMED immunizations, versus PBS
Experimental: (§2) The effect of local administration of immune modulators on the magnitude and quality of antigen specific immune responses induced by a cancer was investigated in BALB/c mice, in which the immune response was assessed by measuring rHER2 specific T cell responses using the IFNγ ELISPOT assay or intracellular cytokine staining assay. Briefly, 4 to 6 female BALB/c mice per group as indicated were immunized with DNA plasmid expression constructs encoding rHER2 antigen sequences (SEQ ID NO:54) by PMED delivery system. The immune modulators, CpG7909 (PF-03512676) and anti-CD40 monoclonal agonistic antibody, were administered locally by intradermal injections in proximity to the vaccine draining inguinal lymph node subsequently after the PMED actuations. Antigen specific T cell responses were measured by IFNγ […]ELISPOT or intracellular cytokine staining assay according to the procedure described below.
The rHer-2 specific polyfunctional (multi-cytokine positive) T cell immune responses were measured from splenocytes or PBMCs isolated from individual animals by ICS assay. […] The total number of antigen specific single, double or triple cytokine positive T cells per total spleen of each animal is calculated by subtracting the rHer-2 specific responses to the irrelevant peptide HBV from the vaccine specific responses and normalized to the total number of splenocytes isolated from the spleen.

rHER2 [3] = assay: IFNγ ELISPOT, rHER2 DNA vaccine with CpG7909 or anti-CD40 in BALB/c mice; format: in vivo, mouse; details: FIG. 40; intradermal after PMED; CpG7909 50 g or anti-CD40 100 ug as printed; versus control antibodies; 7 days after PMED
Experimental: as §2, with “The immune modulators, CpG7909 (PF-03512676) and anti-CD40 monoclonal agonistic antibody, were administered locally by intradermal injections in proximity to the vaccine draining inguinal lymph node subsequently after the PMED actuations.” left out
Briefly, each mouse per treatment group (n=4) was immunized with DNA plasmid expression constructs encoding rHER2 antigen sequences (SEQ ID NO:54) by PMED immediately followed by either 100 ug of control rat IgG monoclonal antibody (Bioxcell #BE0089: control mAb) or 50 g CpG7909 or 100 ug of anti-CD40 monoclonal antibody (Bioxcell #BE0016-2: a-CD40 mAb) as indicated. The antigen specific immune responses were measured by IFNγ ELISPOT assay from 5e5 splenocytes mixed with control or rHer-2 specific p66 peptides at 10 µg/ml concentration, 7 days after the PMED actuation. […]

rhesus PSMA = assay: IFNγ ELISPOT of PBMCs, PSMA DNA electroporation with or without CpG in Chinese cynomolgus macaques, rhesus PSMA peptide pools; format: in vivo; details: group 6: 200 μg CpG co-electroporated, compared to animals that did not receive CpG (group 1); P<0.05
Experimental: as §1
Peripheral blood samples were collected from each animal fifteen days after the DNA immunization. Peripheral blood mononuclear cells (PBMCs) were isolated from the blood samples and were subjected to an IFNγELISPOT assay to measure the PSMA specific T cell responses. […] The number of IFNγ spot forming cells (SFC) were counted by CTL reader. […] ND indicates not determined.

LNCaP = assay: Antibody-dependent cell-mediated cytotoxicity, chromium 51 release, human PBMC effectors; format: cell-based; details: target LNCaP (PSMA+); plasma 1:50 or control mAb
Experimental: (§3) An Indian rhesus macaque was immunized with a nucleic acid encoding a human PSMA modified antigen delivered by adenovirus (1e11 V.P. injected intramuscularly) followed by 2 PMED immunizations (8 actuations/immunization, 4 actuations per each right and left side of the lower abdomen) with 8 and 6 week intervals respectively. The animal also received intradermal injections of 3 mg of CpG (PF-03512676) in proximity to each inguinal draining lymph node at the time of the second PMED immunization. The antibody dependent cell-mediated cytotoxicity was determined from the plasma collected from the blood before any immunizations (pre-immune plasma) and 8 days after the last PMED immunization (immune plasma).
(§4) Antibody-dependent cell-mediated cytotoxicity was determined using the standard chromium 51 release assay. Human prostate cancer cell lines LNCaP and PC3 were used as target cells. Freshly isolated human PBMC cells were used as effector cells. Effectors to target cells were set at 30:1. Briefly, for one labeling reaction, 1.5×10^6 target cells in 200 ul were incubated with 200 μCi ^51Cr (37° C., 5% CO2 for 1 hour).

PC3 = assay: as above; format: cell-based; details: target PC3 (PSMA negative); plasma 1:50 or control mAb
Experimental: as §3, §4

Row | Substance | animals that failed to produce high responses (human PSMA; group 2: CpG 2 mg mixed with 1 mg Alum) | animals that failed to produce high responses (human PSMA; group 3: CpG 2 mg without alum) | animals with modestly higher total response to the PSMA peptides (human PSMA; group 4: CpG 2 mg bilateral intramuscular) | animals with modestly higher total response to the PSMA peptides (human PSMA; group 5: CpG 2 mg bilateral intradermal) | animals with higher net responses (human PSMA; group 6: 200 μg CpG co-electroporated with the DNA solution into the muscle) | response to peptide pool H1 (human PSMA; group 6: 200 μg CpG co-electroporated, compared to animals that did not receive CpG (group 1), P<0.05) | single intravenous dose well tolerated with no clinical effects and no significant toxicity ([1]; patients with previously treated chronic lymphocytic leukemia) | dose limiting toxicity ([1]; single dose subcutaneous) | maximum tolerated dose (MTD) ([1]; single dose subcutaneous) | rHer-2 specific multi-cytokine positive CD8 and CD4 T cell responses (rHER2 [2]) | magnitude of antigen specific immune responses induced by rHer-2 DNA (IFNγ ELISPOT, p66 peptide) (rHER2 [3]) | response to peptide pool R1 (rhesus PSMA) | Percent specific lysis at E:T of 30:1 (LNCaP) | Percent specific lysis at E:T of 30:1 (PC3)
1 | 5′ TCGTCGTTTTGTCGTTTTGTCGTT3′ [CpG 7909] | 4/6 | 3/6 | 3/6 | 2/6 | 4/6 | statistically higher response | up to 1.05 mg/kg | myalgia and constitutional effects | 0.45 mg/kg | significant increase | significantly enhanced the magnitude of antigen specific immune responses | statistically higher response |  | 
2 | Rituxan: monoclonal against B cell antigen (CD20), negative control antibody |  |  |  |  |  |  |  |  |  |  |  |  | 8.99% | 0%
